According to US9045415B2, “Targeting of EWS-FLI1 as anti-tumor therapy” (Georgetown University, priority 2006, dated 2015):
Where two headings read alike, the source gives them in different places. No end group written: not given here. *: point of attachment. FITC = O=C1OC2(c3ccc(O)cc3Oc3cc(O)ccc32)c2ccc(NC(=S)*)cc21

Key:
recombinant EWS-FLI1 = target: T1, recombinant EWS-FLI1 (Homo sapiens, UniProt Q01543+Q01844); experiment: Surface plasmon resonance (Biacore) binding to EWS-FLI1; details: read-out: KD
T1 sequence (Q01543 1-452): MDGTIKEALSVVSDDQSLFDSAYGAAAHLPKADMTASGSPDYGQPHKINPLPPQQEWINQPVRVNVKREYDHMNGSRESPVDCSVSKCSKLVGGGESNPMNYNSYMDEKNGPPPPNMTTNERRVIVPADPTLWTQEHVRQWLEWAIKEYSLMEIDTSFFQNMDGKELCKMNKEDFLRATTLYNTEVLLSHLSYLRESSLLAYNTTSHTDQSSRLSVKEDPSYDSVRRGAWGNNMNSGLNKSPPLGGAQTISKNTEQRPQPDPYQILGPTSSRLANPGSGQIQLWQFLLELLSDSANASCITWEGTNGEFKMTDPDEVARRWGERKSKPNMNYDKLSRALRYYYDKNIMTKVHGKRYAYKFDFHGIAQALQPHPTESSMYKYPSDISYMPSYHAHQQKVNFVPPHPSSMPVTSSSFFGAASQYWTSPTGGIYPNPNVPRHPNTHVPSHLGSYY
T1 sequence (Q01844 1-656): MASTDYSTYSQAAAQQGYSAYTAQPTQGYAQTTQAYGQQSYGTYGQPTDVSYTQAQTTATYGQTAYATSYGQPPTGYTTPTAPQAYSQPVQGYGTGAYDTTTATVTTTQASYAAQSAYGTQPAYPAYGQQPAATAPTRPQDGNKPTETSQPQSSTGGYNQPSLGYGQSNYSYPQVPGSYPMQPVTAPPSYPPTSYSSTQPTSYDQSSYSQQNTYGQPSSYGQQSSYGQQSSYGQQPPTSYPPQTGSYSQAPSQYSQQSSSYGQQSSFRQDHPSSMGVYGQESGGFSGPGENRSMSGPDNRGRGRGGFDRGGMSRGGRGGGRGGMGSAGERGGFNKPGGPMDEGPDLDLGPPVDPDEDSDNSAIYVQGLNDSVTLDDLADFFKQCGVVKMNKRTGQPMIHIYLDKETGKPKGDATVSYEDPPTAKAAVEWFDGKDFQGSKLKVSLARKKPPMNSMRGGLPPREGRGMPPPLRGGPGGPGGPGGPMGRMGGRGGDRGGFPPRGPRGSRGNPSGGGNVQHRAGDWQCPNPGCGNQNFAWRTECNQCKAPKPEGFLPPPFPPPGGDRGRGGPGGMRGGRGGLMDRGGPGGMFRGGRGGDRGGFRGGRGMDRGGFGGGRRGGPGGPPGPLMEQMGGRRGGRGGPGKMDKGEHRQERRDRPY
Description: Antp is conjugated to the amino terminal of all peptides used in these studies. Recombinant EWS-FLI1 (MW 55 kDa) was covalently linked to a CM5 chip at a density of 1200 RU, and E9RP (MW 4 kDa) was evaluated for binding. The E9RP analyte concentrations ranged from 0.03-30 μM, and all are shown in duplicate. E9RP bound to EWS-FLI1 with a KD of 4.0 μM.
An assay that will identify whether a peptide can disrupt RHA from interacting with EWS-FLI1 was developed. The Biacore device is a biosensor that utilizes surface plasmon resonance (SPR) to measure the strength of molecular interactions. SPR is the sensitive measurement of […] light based upon alterations of surface characteristics that change with molecules binding to a surface. The Biacore device combines SPR with a microfluidic system.
The KD of E9RP binding to EWS-FLI1 was calculated to be 4.0 μM (FIG. 4).
A surface plasmon resonance assay using the Biacore T100 was established with EWS-FLI1, prepared in our laboratory as previously published (Uren, A., Tcherkasskaya, O. & Toretsky, J. A. Recombinant EWS-FLI1 oncoprotein activates transcription. Biochemistry 43, 13579-13589 (2004)). DNA oligonucleotides were used to quality control the proper conformation of EWS-FLI1 on the surface of a CM5 chip. Small molecules obtained from the Developmental Therapeutics Program of the National Cancer Institute, NIH (http://dtp.nci.nih.gov/branches/dscb/repo_open.html) were prioritized based upon their molecular weight and solubility. An initial screening of molecules was performed at 1 or 10 μM compound, based on solubility. We used a model that compares the actual binding maximum (actual RU) with the theoretical binding maximum (RUtheor). […] Hits (RUactual to RUtheor of 0.7-2.0) were then reviewed by a team of medicinal chemists and those with structural potentials were selected for further study. Selected molecules were tested in vitro in a solution coimmunoprecipitation assay using recombinant EWS-FLI1 and GST-RHA (647-1075).

ESFT cells TC71 = experiment: Xenografts of TC71 cells transfected with E9R expression plasmids; type: in vivo, mice; details: mutated control peptide vs wild-type
Description: ESFT cells TC71 were transfected with pGE9R (wild-type sequence peptide (SEQ ID NO: 29)) or pGE9R-D5A (control, mutated peptide; D5A (SEQ ID NO: 31)). In FIG. 10A, fluorescent micrographs of transfected cells after 4 days in culture are presented. […] Bar equals 300 microns. In FIG. 10B, each group contains six mice. Mice legs were measured every 2-3 days. Tumors appeared in 2 weeks. The experiment was terminated after 26 days when the largest tumor caused the mouse to limp. Tumor volumes were calculated according to (D×d2/6)×π formula, where large diameter of tumor mass is D and small diameter is d. 2-way ANOVA analysis, followed by Bonferroni correction for multiple variables, the difference in the two growth curves was highly significant, p=0.016.
The ability of the E9R peptide sequence to prevent ESFT tumorigenesis in a pilot murine xenograft experiment was determined. As a control peptide, the same mutation that prevented wild-type RHA from binding to EWS-FLI1 (D827A, noted in the 10-mer peptide as E9R-D5A) was created. ESFT cells were transfected with either pGE9R or pGE9R-D5A by electroporation. A transfection efficiency of greater than 80% using fluorescent microscopy (FIG. 10A) was observed. […] Every two to three days, each animal's thigh was measured in three dimensions, and tumor volumes were calculated. […]

TC32 cells = experiment: Monolayer cell growth (MTT or WST), TC32; type: cell-based; details: TC32 monolayer, 10 μM
Description: (§1) In FIG. 13A, recombinant EWS-FLI1 was treated with NSC635437 for 30 minutes. GST-RHA (630-1020) was added and the complexes were then precipitated with antibody to EWS-FLI1 and Protein G beads. Resolved complexes showing the immunoprecipitated complex control without compound are in lanes 3 (0.1% DMSO) and 5 (0.01% DMSO). […] ESFT TC32 (◯) and neuroblastoma SK-N-AS (▪) were grown for 72 hours in the continuous presence of NSC635437. Cells were incubated in MTT reagent for 4 hours and the dried precipitate was dissolved isopropanol and the absorbance read at 570 nm. Each cell line was standardized to the growth of the DMSO control.
(§2) FIG. 30 provides data to show E9R peptide prevents EWS-FLI1 binding to RHA with specific detrimental effects upon ESFT growth and transformation. […] Scale bar equals 20 μm. […] Only expression of EGFP-E9R in TC71 reduced anchorage independent growth. […] Scale bar equals 20 μm.
FIG. 33 provides data showing YK-4-279 is potent and specific inhibitor of ESFT. […] Cell number was measured by MTT or WST reduction after seven days in culture. […] FIG. 33D cell lines expressing EWS-FLI1 compared to non-EWS-FLI1 malignant cell lines following 3 days in culture to establish the IC50 using WST assay. […] Graph plots level of fluorescence in treated divided by untreated lysate. […] Scale bar equals 200 μm.

[1] = test system: neuroblastoma SKNAS cells; experiment: Monolayer cell growth, neuroblastoma; type: cell-based; details: SKNAS monolayer
Source text: FIGS. 8A-E show E9RP inhibits ESFT cell growth. In FIGS. 8A and 8B, E9RP is the peptide region of RHA (SEQ ID NO:29) fused to the Penetratin peptide (from the Antennapedia homeodomain; SEQ ID NO:34) and contains amino-terminal fluorescein (FITC). […] Neither lipids nor electricity were used for transduction of peptides into cells. Confocal microscopy identified peptide throughout cells with nuclear uptake. Nuclear uptake was confirmed by DAPI staining. […] Cell lines were placed in 96-well plates with either vehicle alone (●), or E9RP (10 μM) on days 0, 3 and 5 (▴). No lipid or other transfection method was utilized. This represents two experiments with similar results. FIG. 8D depicts dose response of ESFT 1 to either wild-type or single amino-acid mutant peptides. (▪) wild-type E9RP, (E9R (SEQ ID NO:29) fused to the Penetratin peptide (SEQ ID NO:34)), (▾)(E9RP (P2A peptide (SEQ ID NO:30) fused to the Penetratin peptide (SEQ ID NO:34)), (▴)E9RP (D5A peptide (SEQ ID NO:31) fused to the Penetratin peptide (SEQ ID NO:34)). Growth normalized to treating cells with the 16 aa Antp sequence alone (SEQ ID NO:34). FIG. 8E is a comparison of wild-type versus mutant peptides in ESFT and NB cells.
as §1, §2

Work on `O=C(CC1(O)C(=O)N(Cc2ccccc2)c2c(Cl)ccc(Cl)c21)c1ccc(Cl)cc1` (centres unmarked) [YK-4-276, 1-Benzyl-4,7-dichloro-3-[2-(4-chlorophenyl-2-oxoethyl)]-3-hydroxyl-1,3-dihydroindol-2-one] yielded a Kd (recombinant EWS-FLI1; FIG. 24 experiment) of 10.2 µM and a melting point of 154 to 156 °C.

Molecule `Cc1ccc(C(=O)CC2(O)C(=O)Nc3c(Cl)ccc(Cl)c32)cc1` (centres unmarked) [YK-4-280, 4,7-Dichloro-3-hydroxyl-3-(2-oxo-2-p-tolylethyl)-1,3-dihydroindol-2-one] has a melting point of 189 to 192 °C.

With `O=C(CC1(O)C(=O)Nc2c(Cl)ccc(Cl)c21)c1ccc(O)cc1` (centres unmarked) [YK-4-289, 4,7-Dichloro-3-hydroxyl-3-[2-(4-hydroxyphenyl-2-oxoethyl)]-1,3-dihydroindol-2-one] the Kd (recombinant EWS-FLI1; FIG. 23 experiment) was 6.82 µM, the Kd (recombinant EWS-FLI1; FIG. 24 experiment) was 9.3 µM and the melting point was 240 to 242 °C.

For `Nc1ccc(C(=O)CC2(O)C(=O)Nc3c(Cl)ccc(Cl)c32)cc1` (centres unmarked) [YK-4-284, 3-[2-(4-Aminophenyl-2-oxoethyl)]-4,7-dichloro-3-hydroxyl 1,3-dihydroindol-2-one], the melting point was 240 to 243 °C.

For “PPPLAAVIEA [E9R-D5A, control, mutated peptide D5A, expressed from pGE9R-D5A, reference compound]”, the “tumor take-rate and rate of growth” value (ESFT cells TC71) was “greater”.

With `O=C(CC1(O)C(=O)Nc2c(Cl)ccc(Cl)c21)c1ccccc1` (centres unmarked) [YK-4-285, 4,7-Dichloro-3-hydroxyl-3-(2-oxo2-phenylethyl)-1,3-dihydroindol-2-one] the melting point was 198 to 200 °C.

For “[FITC]-RQIKIWFQNRRMKWKKPPPLAAVIEA ({FITC}-RQIKIWFQNRRMKWKKPPPLAAVIEA) [E9R(D5A), Antennapedia-E9R-D5A, mutated control peptide, reference compound]”, the “ESFT cell growth with fluorescein conjugated peptides” value (TC32 cells) was “neither the D5A mutated control nor antennapedia peptides alone reduced ESFT cell growth” and the “growth of neuroblastoma cells with fluorescein conjugated peptides” value [1] was “slight increase”.
